Reference: patent US10946383B2, “Oligonucleotide encoded chemical libraries” (Plexium, Inc., priority 2017, dated 2021)

Target: Cathepsin-D protease (Homo sapiens, UniProt P07339)
Experiment: Cathepsin-D protease inhibition assay in picowells with bead-released compound and Peptide Q-Fluor substrate
Format: biochemical
Conditions: compound released from 10 μm TentaGel beads by UV (365 nm, 77 J/cm^2) to approximately 13 μM; 30 min, 37° C.

Cathepsin-D protease, sequence (P07339 65-412): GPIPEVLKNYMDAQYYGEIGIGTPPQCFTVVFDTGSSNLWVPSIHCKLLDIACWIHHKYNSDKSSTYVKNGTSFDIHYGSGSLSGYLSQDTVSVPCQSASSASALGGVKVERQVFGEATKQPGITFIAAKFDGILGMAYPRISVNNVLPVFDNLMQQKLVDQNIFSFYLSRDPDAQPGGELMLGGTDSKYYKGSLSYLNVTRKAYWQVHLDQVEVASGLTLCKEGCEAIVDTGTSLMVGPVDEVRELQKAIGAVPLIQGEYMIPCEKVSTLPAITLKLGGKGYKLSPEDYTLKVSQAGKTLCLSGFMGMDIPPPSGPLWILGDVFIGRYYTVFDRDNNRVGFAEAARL

CC(C)[C@H](NC(=O)OCC1c2ccccc2-c2ccccc21)C(=O)O [negative control beads, Fmoc-Valine]
Cathepsin-D inhibition (fluorescence of cleaved Peptide Q-Fluor substrate): no Cathepsin-D inhibition
